# Target: T1, mono-acyl glycerol lipase (MAGL) (Homo sapiens, UniProt Q99685)
# T1 construct: purchased Cayman Chemical
# T1 sequence (Q99685 1-303): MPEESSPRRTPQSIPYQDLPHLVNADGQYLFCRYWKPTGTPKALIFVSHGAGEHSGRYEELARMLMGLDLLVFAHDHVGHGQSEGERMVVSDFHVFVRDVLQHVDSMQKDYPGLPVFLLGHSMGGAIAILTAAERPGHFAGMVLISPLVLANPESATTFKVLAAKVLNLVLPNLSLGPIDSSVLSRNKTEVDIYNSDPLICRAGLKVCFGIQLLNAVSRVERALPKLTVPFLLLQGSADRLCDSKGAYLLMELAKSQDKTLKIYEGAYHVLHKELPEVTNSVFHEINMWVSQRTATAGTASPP
# Experiment: In vitro inhibition of mono-acyl glycerol lipase (Monoacylglycerol Lipase Inhibitor Screening Assay Kit, Cayman Chemical; colorimetric)
# Type: biochemical
# Conditions: human recombinant enzyme; 5 min pre-incubation at room temperature (20 °C); substrate 4-nitrophenylacetate (236 µM), 30 min; absorbance at 412 nm; read-out: IC50 against MAGL
# Procedure: The ability of the compounds of the present invention to inhibit mono-acyl glycerol lipase (MAGL) was estimated using their IC50 value. MALG inhibition was measured using the Monoacylglycerol Lipase Inhibitor Screening Assay Kit (Cayman Chemical, USA). Briefly, in 96-well plate, samples and human recombinant enzyme were incubated for five minutes at room temperature (20 °C). After that, an ethanolic solution of 4-nitrophenylacetate (236 µM), as colorimetric substrate, was added to the wells and plates were incubated for 30 minutes at room temperature. Finally, absorbance was measured at 412 nm. JZL195 {(4-nitrophenyl)-4-[(3-phenoxyphenyl)methyl]piperazine-1-carboxylate, 5 µM} was used as a positive control. Background obtained was subtracted in each experimental value and the percentage of inhibition was established with the formula (Absorbance 100% Activity - Absorbance of the sample)/Absorbance 100% Activity. Table 1: MAGL inhibition (IC50) for compounds of the invention
row,SMILES,IC50 [µM]
1,"CCCC1=CC(=O)C2=C(OC(C)(CCC=C(C)C)C=C2)C1=O (stereo not drawn) [(C), 2-methyl-2-(4-methylpent-3-enyl)-7-propyl-chromene-5,8-dione]",6.64
2,"CCCCCC1=CC(=O)C2=C(OC(C)(CCC=C(C)C)C=C2)C1=O (stereo not drawn) [(A), 2-methyl-2-(4-methylpent-3-enyl)-7-pentyl-chromene-5,8-dione]",4.44
3,"CCCCCC1=CC(=O)C2=C(OC(C)(C)C=C2)C1=O [(B), 2,2-dimethyl-7-pentyl-chromene-5,8-dione]",4.5
